Experimental data: US9409915B2, “Substituted aza-bicyclic imidazole derivatives useful as TRPM8 receptor modulators” (Janssen Pharmaceutica NV, priority 2010, dated 2016)
Counter-ions that a name gives are not always drawn. Like-named read-outs stand apart in the source and are kept apart here.

Target: canine TRPM8 (Canis lupus familiaris, UniProt Q1A7N1)
Assay: In vitro canine TRPM8 functional assay (Ca2+-sensitive fluorescent dye, icilin activation)
Assay type: cell-based
Description: The functional activity of representative compounds of the formula (I) of the present invention was quantified by measuring changes in intracellular calcium concentration using a Ca^2+-sensitive fluorescent dye. The changes in fluorescent signal were monitored by a fluorescence plate reader, either a FLIPR™ (Molecular Devices) or FDSS (Hamamatsu).
HEK293 cells stably expressing canine TRPM8 were routinely grown as monolayers in Dulbecco's minimum essential medium supplemented with 10% FBS, 2 mM L-glutamine, 100 units/mL penicillin, 100 ug/mL streptomycin and 400 μg/mL G418. Cells were maintained in 5% CO2 at 37° C. At 24 hr prior to assay, cells were seeded in black wall, clear-base poly-D-lysine coated 384-well plates (BD Biosciences, NJ, USA) at a density of 5,000 cells per well in culture medium and grown overnight in 5% CO2 at 37° C. On assay day, growth media was removed, and cells were loaded with Calcium 3 Dye (Molecular Devices) for 35 min at 37° C., under 5% CO2 and then incubated for 25 min at room temperature and atmosphere. Subsequently, cells were tested for agonist-induced increases in intracellular Ca^2+ levels using FLIPR™ or FDSS. Cells were treated with compounds of the formula (I) at varying concentrations and intracellular Ca^2+ was measured for 5 min prior to the addition of icilin to each well to achieve a final concentration that produces an approximately 80% maximal response.
Maximal fluorescence intensity (FI) achieved upon addition of icilin was exported from the FLIPR™ or FDSS software and further analyzed using GraphPad Prism 3.02 (Graph Pad Software Inc., CA, U.S.A.). Basal FI was subtracted prior to normalizing data to percent of maximal response. Curves were generated using the average of quadruplicate wells for each data point using nonlinear regression of either sigmoidal dose response or sigmoidal dose response (variable slope). Finally, the EC50 and IC50 values were calculated with the best-fit curve determined by GraphPad Prism

[1] = 0.2 μM compound, HEK293 cells stably expressing canine TRPM8, icilin-induced Ca2+ response
[2] = HEK293 cells stably expressing canine TRPM8, icilin-induced Ca2+ response, eight-point concentration-response
[3] = HEK293, 0.2 μM compound, HEK293 cells stably expressing canine TRPM8, icilin-induced Ca2+ response

Chain of canine TRPM8 (Q1A7N1 1-1104): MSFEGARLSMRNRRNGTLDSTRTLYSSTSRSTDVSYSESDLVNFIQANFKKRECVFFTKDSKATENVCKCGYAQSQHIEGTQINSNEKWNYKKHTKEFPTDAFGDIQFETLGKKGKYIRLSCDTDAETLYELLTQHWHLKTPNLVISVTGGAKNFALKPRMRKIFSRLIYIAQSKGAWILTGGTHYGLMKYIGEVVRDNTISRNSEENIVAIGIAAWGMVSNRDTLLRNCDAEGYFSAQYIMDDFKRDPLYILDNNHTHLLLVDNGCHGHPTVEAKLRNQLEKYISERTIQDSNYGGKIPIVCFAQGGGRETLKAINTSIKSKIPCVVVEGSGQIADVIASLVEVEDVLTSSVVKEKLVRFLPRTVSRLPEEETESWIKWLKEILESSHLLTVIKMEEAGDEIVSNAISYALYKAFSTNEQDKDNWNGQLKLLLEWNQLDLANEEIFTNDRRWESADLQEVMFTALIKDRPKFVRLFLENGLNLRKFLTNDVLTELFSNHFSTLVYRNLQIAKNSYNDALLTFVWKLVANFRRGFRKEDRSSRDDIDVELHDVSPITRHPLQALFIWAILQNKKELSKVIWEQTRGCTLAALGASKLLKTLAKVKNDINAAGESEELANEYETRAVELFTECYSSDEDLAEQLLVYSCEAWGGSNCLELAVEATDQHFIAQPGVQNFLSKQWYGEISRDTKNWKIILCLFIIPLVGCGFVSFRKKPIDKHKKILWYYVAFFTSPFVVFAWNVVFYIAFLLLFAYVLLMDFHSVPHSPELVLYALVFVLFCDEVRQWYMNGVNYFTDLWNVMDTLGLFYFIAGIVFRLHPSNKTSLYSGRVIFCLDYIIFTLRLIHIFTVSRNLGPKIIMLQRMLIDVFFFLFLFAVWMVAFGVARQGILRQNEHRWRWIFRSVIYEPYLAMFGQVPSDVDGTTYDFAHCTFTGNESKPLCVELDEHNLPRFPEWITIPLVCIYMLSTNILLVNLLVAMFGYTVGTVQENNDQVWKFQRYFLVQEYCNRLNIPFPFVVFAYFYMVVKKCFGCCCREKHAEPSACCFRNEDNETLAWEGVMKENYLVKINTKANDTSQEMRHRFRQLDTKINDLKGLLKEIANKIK

Row | SMILES | IC50 [2] [µM] | inhibition at 0.2 µM [1] [%] | other results
1 | Cn1nc(C(C)(C)C)c(Cl)c1-c1nc2nc(-c3ccccc3C(F)(F)F)cc(C(F)(F)F)c2[nH]1 [Compound 1] | 0.027 |  | % Inh @ 0.2 μM [1]: 99%
2 | COc1nc(-c2ccccc2OC(F)(F)F)cc2nc(-c3c(Cl)c(C(C)(C)C)nn3C)[nH]c12 [Compound 2, 2-(5-tert-Butyl-4-chloro-2-methyl-2H-pyrazol-3-yl)-4-methoxy-6-(2-trifluoromethoxy-phenyl)-3H-imidazo[4,5-c]pyridine sodium salt] | 0.013 | 100 | 
3 | Cn1nc(C(C)(C)C)cc1-c1nc2nc(-c3ccccc3C(F)(F)F)cc(Cl)c2[nH]1 [Compound 6, 2-(5-tert-butyl-2-methyl-2H-pyrazol-3-yl)-7-chloro-5-(2-trifluoromethyl-phenyl)-1H-imidazo[4,5-b]pyridine sodium salt] | 0.069 | 65 | 
4 | CC(C)(C)c1cc(-c2nc3nc(-c4ccccc4C(F)(F)F)cc(Cl)c3[nH]2)on1 [Compound 7, 2-(3-tert-Butyl-isoxazol-5-yl)-7-chloro-5-(2-trifluoromethyl-phenyl)-1H-imidazo[4,5-b]pyridine] | 0.038 | 99 | 
5 | COc1nc(-c2ccccc2C(F)(F)F)cc2nc(-c3c(Cl)c(C(C)(C)C)nn3C)[nH]c12 [Compound 9, 2-(5-tert-Butyl-4-chloro-2-methyl-2H-pyrazol-3-yl)-4-methoxy-6-(2-trifluoromethyl-phenyl)-3H-imidazo[4,5-c]pyridine methanesulfonic acid salt, hydrochloride] |  | 100 | 
6 | CC(C)(C)c1cc(-c2nc3nc(-c4ccccc4C(F)(F)F)cc(C(F)(F)F)c3[nH]2)on1 [Compound 10, 2-(3-tert-Butyl-isoxazol-5-yl)-7-trifluoromethyl-5-(2-trifluoromethyl-phenyl)-1H-imidazo[4,5-b]pyridine] | 0.016 | 101 | 
7 | COc1nc(-c2ccccc2Cl)cc2nc(-c3cc(C(C)(C)C)nn3C)[nH]c12 [Compound 12, 2-(5-tert-Butyl-2-methyl-2H-pyrazol-3-yl)-6-(2-chloro-phenyl)-4-methoxy-3H-imidazo[4,5-c]pyridine] | 0.011 | 101 | 
8 | COc1nc(-c2ccccc2C(F)(F)F)cc2[nH]c(-c3onc(C(C)(C)C)c3C#N)nc12 [Compound 13, 3-tert-Butyl-5-[4-methoxy-6-(2-trifluoromethyl-phenyl)-1H-imidazo[4,5-c]pyridine-2-yl]-isoxazole-4-carbonitrile methanesulfonic acid salt] | 0.046 | 94 | 
9 | CC(C)Oc1nc(-c2ccccc2C(F)(F)F)cc2nc(-c3c(C#N)c(C(C)(C)C)nn3C)[nH]c12 [Compound 14, 3-tert-Butyl-5-[4-isopropoxy-6-(2-trifluoromethyl-phenyl)-3H-imidazo[4,5-c]pyridin-2-yl]-1-methyl-1H-pyrazole-4-carbonitrile benzenesulfonic acid salt] | 0.0012 | 99 | 
10 | Cn1nc(C(C)(C)C)c(C#N)c1-c1nc2cc(-c3ccccc3C(F)(F)F)nc(OCC(F)(F)F)c2[nH]1 [Compound 15, 3-tert-Butyl-1-methyl-5-[4-(2,2,2-trifluoro-ethoxy)-6-(2-trifluoromethyl-phenyl)-3H-imidazo[4,5-c]pyridine-2-yl]-1H-pyrazole-4-carbonitrile methanesulfonic acid salt] | 0.0018 | 100 | 
11 | CC(C)Oc1nc(-c2ccccc2C(F)(F)F)cc2nc(-c3c(Cl)c(C(C)(C)C)nn3C)[nH]c12 [Compound 16, 2-(5-tert-Butyl-4-chloro-2-methyl-2H-pyrazol-3-yl)-4-isopropoxy-6-(2-trifluoromethyl-phenyl)-3H-imidazo[4,5-c]pyridine benzenesulfonic acid salt] | 0.00059 | 99 | 
12 | COc1nc(-c2ccccc2Cl)cc2nc(-c3c4c(nn3C)C3(CCCCC3)CC4)[nH]c12 [Compound 18, 2-(2-methyl-6,6-spirocyclohexyl-2,4,5,6-tetrahydro-cyclopenta-2H-pyrazol-3-yl)-4-methoxy-6-(2-chloro-phenyl)-3H-imidazo[4,5-c]pyridine] |  |  | % Inh @ 0.2 μM: 99%; IC50: 0.0082 µM
13 | Cn1nc(C(C)(C)C)c(Cl)c1-c1nc2cc(-c3ccccc3C(F)(F)F)nc(OCC(F)(F)F)c2[nH]1 [Compound 19, 2-(5-tert-Butyl-4-chloro-2-methyl-2H-pyrazol-3-yl)-4-(2,2,2-trifluoroethoxy)-6-(2-trifluoromethyl-phenyl)-3H-imidazo[4,5-c]pyridine methanesulfonic acid salt] | 0.00084 | 100 | 
14 | COCCOc1nc(-c2ccccc2C(F)(F)F)cc2nc(-c3c(Cl)c(C(C)(C)C)nn3C)[nH]c12 [Compound 20, 2-(5-tert-Butyl-4-chloro-2-methyl-2H-pyrazol-3-yl)-4-(2-methoxy-ethoxy)-6-(2-trifluoromethyl-phenyl)-3H-imidazo[4,5-c]pyridine benzenesulfonic acid salt] | 0.00095 | 99 | 
15 | COCCOc1nc(-c2ccccc2C(F)(F)F)cc2nc(-c3c(C#N)c(C(C)(C)C)nn3C)[nH]c12 [Compound 21, 3-tert-Butyl-5-[4-(2-methoxy-ethoxy)-6-(2-trifluoromethyl-phenyl)-3H-imidazo[4,5-c]pyridine-2-yl]-1-methyl-1H-pyrazole-4-carbonitrile benzenesulfonic acid salt] | 0.00069 | 99 | 
16 | Cn1nc(C(C)(C)C)c(C#N)c1-c1nc2cc(-c3ccccc3C(F)(F)F)nc(N3CCCCC3)c2[nH]1 [Compound 22, 3-tert-Butyl-1-methyl-5-[4-piperidin-1-yl-6-(2-trifluoromethyl-phenyl)-3H-imidazo[4,5-c]pyridine-2-yl]-1H-pyrazole-4-carbonitrile] | 0.0014 | 99 | 
17 | Cn1nc(C(C)(C)C)c(Cl)c1-c1nc2nc(-c3ccccc3Cl)ccc2[nH]1 [Compound 23, 2-(5-tert-Butyl-4-chloro-2-methyl-2H-pyrazol-3-yl)-5-(2-chloro-phenyl)-1H-imidazo[4,5-b]pyridine hydrochloride] |  |  | inhibition at 0.2 µM [3]: 96%
18 | CN1CCN(c2nc(-c3ccccc3C(F)(F)F)cc3nc(-c4c(C#N)c(C(C)(C)C)nn4C)[nH]c23)CC1 [Compound 24, 3-tert-Butyl-1-methyl-5-[4-(4-methyl-piperazin-1-yl)-6-(2-trifluoromethyl-phenyl)-3H-imidazo[4,5-c]pyridin-2-yl]-1H-pyrazole-4-carbonitrile methanesulfonic acid salt] | 0.0074 |  | inhibition at 0.2 µM [3]: 99%
19 | Cn1nc(C(C)(C)C)c(Cl)c1-c1nc2nc(-c3ccccc3OC(F)(F)F)ccc2[nH]1 [Compound 25, 2-(5-tert-Butyl-4-chloro-2-methyl-2H-pyrazol-3-yl)-5-(2-trifluoromethoxy-phenyl)-1H-imidazo[4,5-b]pyridine hydrochloride] | 0.012 |  | inhibition at 0.2 µM [3]: 100%
20 | CC(C)(C)c1cc(-c2nc3nc(-c4ccccc4Cl)ccc3[nH]2)on1 [Compound 26, 2-(3-tert-Butyl-isoxazol-5-yl)-5-(2-chloro-phenyl)-1H-imidazo[4,5-b]pyridine] | 0.035 | 100 | 
21 | Cn1nc(C(C)(C)C)cc1-c1nc2nc(-c3ccccc3Cl)ccc2[nH]1 [Compound 27, 2-(5-tert-Butyl-2-methyl-2H-pyrazol-3-yl)-5-(2-chloro-phenyl)-1H-imidazo[4,5-b]pyridine] | 0.124 | 73 | 
22 | CN1CCN(c2nc(-c3ccccc3C(F)(F)F)cc3nc(-c4c(Cl)c(C(C)(C)C)nn4C)[nH]c23)CC1 [Compound 28, 2-(5-tert-Butyl-4-chloro-2-methyl-2H-pyrazol-3-yl)-4-(4-methyl-piperazin-1-yl)-6-(2-trifluoromethyl-phenyl)-3H-imidazo[4,5-c]pyridine methanesulfonic acid salt] | 0.011 |  | inhibition at 0.2 µM [3]: 99%
23 | CC(C)(C)c1cc(-c2nc3nc(-c4ccccc4OC(F)(F)F)ccc3[nH]2)on1 [Compound 29, 2-(3-tert-Butyl-isoxazole-5-yl)-5-(2-trifluoromethoxy-phenyl)-1H-imidazo[4,5-b]pyridine] | 0.033 | 99 | 
24 | CC(C)(C)c1cc(-c2nc3nc(-c4ccccc4F)ccc3[nH]2)on1 [Compound 30, 2-(3-tert-Butyl-isoxazol-5-yl)-5-(2-fluoro-phenyl)-1H-imidazo[4,5-b]pyridine] | 0.087 | 87 | 
25 | CC(C)(C)c1cc(-c2nc3nc(-c4ccccc4C(F)(F)F)ccc3[nH]2)on1 [Compound 31, 2-(3-tert-Butyl-isoxazol-5-yl)-5-(2-trifluoromethyl-phenyl)-1H-imidazo[4,5-b]pyridine] | 0.018 | 100 | 
